Measured values: US11572590B2, “Methods for evaluating tumor cell spheroids using 3D microfluidic cell culture device” (Dana-Farber Cancer Institute, Inc., priority 2017, dated 2023)
Read-outs that look alike come from different tables or passages of the source.

Tests used:
Assay in all cases: SelectScreen Kinase Profiling, single point inhibition and IC50 for off-target kinases
Format in all cases: biochemical
off-target kinases [1] = biological target: T1, off-target kinases (Homo sapiens, UniProt Q8IYT8); conditions: ULK2, LanthaScreen Binding
T1 sequence (Q8IYT8 1-1036): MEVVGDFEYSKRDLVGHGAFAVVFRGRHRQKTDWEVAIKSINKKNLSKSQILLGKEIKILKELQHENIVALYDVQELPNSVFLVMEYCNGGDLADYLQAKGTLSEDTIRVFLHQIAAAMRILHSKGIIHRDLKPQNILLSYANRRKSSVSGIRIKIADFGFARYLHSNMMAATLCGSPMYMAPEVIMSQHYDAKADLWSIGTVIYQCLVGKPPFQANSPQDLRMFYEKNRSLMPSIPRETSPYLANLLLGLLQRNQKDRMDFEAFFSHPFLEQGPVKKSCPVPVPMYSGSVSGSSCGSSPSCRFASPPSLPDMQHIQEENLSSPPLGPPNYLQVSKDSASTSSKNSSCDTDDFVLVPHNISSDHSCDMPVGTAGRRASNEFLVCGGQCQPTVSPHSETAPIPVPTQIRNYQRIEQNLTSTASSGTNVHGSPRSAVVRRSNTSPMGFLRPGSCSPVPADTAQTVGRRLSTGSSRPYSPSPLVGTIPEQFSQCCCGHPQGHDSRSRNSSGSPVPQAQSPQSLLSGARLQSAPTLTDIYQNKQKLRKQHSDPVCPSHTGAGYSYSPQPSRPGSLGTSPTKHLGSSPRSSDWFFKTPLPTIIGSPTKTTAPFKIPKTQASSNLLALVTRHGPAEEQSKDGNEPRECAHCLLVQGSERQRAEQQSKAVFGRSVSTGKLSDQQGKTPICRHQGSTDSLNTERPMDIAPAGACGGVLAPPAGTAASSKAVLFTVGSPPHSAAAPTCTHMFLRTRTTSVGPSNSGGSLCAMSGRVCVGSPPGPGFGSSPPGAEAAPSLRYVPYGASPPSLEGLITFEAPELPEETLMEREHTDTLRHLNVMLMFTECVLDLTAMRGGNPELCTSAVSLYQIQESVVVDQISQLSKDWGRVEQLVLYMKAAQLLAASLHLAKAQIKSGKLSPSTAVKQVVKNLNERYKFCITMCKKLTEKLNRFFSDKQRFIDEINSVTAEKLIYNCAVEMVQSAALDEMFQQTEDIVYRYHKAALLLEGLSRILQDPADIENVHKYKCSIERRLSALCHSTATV

off-target kinases [2] = biological target: off-target kinases (Homo sapiens, UniProt Q9BWU1); conditions: CDK11 (Inactive); Cmpd1 1000 μM; LanthaScreen Binding
off-target kinases (Homo sapiens, UniProt Q9BWU1), sequence (Q9BWU1 whole entry): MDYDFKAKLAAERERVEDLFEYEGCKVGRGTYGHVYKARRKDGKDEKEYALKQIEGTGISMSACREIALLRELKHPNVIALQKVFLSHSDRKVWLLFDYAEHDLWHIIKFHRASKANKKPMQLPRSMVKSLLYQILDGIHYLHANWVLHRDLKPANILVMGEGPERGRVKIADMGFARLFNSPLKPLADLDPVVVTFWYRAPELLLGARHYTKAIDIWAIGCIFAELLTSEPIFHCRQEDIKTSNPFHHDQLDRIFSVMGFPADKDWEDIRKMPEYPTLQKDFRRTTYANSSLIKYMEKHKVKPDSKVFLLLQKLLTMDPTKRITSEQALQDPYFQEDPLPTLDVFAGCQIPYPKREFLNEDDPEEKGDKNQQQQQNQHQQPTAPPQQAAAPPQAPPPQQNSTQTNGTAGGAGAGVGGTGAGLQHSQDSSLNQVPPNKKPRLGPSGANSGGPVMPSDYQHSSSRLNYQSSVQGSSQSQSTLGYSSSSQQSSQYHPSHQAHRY

off-target kinases [3] = biological target: off-target kinases (Homo sapiens, UniProt P00533, L858R/T790M); conditions: EGFR (ErbB1) T790M L858R, mutant y, ZLYTE, ATP Km app
off-target kinases (Homo sapiens, UniProt P00533, L858R/T790M), sequence (P00533 25-1210 T790M/L858R): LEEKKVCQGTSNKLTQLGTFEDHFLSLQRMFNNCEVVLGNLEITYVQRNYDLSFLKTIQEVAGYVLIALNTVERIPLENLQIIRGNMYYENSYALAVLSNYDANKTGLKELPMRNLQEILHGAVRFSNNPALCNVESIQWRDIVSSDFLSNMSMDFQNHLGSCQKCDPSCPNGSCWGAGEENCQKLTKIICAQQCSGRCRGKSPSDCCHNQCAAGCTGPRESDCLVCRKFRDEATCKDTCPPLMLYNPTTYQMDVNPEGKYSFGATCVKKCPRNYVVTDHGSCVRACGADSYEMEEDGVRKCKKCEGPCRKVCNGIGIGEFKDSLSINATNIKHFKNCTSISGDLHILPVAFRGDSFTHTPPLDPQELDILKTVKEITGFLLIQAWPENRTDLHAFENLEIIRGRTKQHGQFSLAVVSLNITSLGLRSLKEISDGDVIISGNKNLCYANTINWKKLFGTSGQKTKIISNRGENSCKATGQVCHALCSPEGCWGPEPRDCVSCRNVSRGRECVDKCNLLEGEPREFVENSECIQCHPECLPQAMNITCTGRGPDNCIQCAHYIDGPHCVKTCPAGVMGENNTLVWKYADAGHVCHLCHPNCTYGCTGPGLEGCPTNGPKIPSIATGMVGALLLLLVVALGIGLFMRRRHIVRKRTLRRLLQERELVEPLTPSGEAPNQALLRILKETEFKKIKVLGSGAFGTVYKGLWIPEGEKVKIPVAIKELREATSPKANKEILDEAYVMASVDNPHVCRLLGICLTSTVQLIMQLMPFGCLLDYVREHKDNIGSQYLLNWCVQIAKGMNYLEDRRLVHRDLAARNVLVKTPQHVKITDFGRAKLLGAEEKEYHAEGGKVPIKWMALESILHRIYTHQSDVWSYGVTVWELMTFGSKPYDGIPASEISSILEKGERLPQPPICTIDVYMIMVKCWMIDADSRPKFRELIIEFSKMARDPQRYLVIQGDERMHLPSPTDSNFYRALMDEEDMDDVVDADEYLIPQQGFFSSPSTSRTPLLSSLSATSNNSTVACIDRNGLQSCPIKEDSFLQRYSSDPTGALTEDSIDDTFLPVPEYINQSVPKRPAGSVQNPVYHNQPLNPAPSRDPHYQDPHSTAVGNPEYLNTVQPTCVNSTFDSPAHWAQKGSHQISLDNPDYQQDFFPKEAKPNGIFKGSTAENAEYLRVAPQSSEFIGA

off-target kinases [4] = biological target: T2, off-target kinases (Homo sapiens, UniProt P36897); conditions: TGFBR1 (ALK5), LanthaScreen Binding
T2 sequence (P36897 34-503): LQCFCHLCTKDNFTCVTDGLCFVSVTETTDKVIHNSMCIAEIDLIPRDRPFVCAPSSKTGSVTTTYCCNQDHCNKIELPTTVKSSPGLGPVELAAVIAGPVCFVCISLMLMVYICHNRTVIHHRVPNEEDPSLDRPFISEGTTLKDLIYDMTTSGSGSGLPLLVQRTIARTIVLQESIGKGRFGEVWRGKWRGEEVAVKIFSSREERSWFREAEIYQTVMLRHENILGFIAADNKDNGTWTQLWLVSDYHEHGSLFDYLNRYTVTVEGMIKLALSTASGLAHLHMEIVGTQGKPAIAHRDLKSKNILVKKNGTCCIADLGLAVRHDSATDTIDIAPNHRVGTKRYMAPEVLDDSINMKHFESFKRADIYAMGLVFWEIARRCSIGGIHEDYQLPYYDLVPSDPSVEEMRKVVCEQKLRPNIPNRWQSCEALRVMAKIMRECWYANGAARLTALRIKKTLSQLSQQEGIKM

off-target kinases [5] = biological target: off-target kinases (Homo sapiens, UniProt P11362); conditions: FGFR1, ZLYTE, ATP Km app
off-target kinases (Homo sapiens, UniProt P11362), sequence (P11362 22-822): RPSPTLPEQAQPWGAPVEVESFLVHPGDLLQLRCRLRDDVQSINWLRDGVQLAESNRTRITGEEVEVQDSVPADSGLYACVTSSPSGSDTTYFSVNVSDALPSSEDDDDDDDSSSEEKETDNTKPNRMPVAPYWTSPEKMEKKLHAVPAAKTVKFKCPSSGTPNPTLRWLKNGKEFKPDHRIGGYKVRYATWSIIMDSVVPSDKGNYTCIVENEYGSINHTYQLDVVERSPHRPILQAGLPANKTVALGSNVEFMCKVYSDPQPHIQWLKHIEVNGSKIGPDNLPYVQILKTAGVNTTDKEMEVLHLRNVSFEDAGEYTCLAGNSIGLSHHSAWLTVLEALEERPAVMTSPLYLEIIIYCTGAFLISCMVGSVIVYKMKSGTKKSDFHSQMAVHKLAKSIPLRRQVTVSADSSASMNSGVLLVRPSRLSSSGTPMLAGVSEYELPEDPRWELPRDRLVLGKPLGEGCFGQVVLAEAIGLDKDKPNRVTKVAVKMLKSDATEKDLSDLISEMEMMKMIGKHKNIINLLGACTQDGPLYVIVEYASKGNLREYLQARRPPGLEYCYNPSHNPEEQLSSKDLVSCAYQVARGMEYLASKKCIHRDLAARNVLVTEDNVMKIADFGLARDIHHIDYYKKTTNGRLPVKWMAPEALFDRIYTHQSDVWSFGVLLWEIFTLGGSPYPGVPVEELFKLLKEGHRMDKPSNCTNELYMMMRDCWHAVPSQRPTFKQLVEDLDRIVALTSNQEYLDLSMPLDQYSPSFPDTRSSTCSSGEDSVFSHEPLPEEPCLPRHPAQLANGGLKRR

## N#Cc1cc(-c2ncnc(Nc3ccc(N4CCN(C5COC5)CC4)cc3)n2)ccc1OC1CCOCC1 [Compound 1, 5-(4-((4-(4-(oxetan-3-yl)piperazin-1-yl)phenyl)amino)-1,3,5-triazin-2-yl)-2-((tetrahydro-2H-pyran-4-yl)oxy)benzonitrile]
off-target kinases [1]; read-out: % Inhibition 1
  inhibition: 86%
off-target kinases [1]; read-out: % Inhibition 2
  inhibition: 90%
off-target kinases [1]; read-out: % Inhibition Avg
  inhibition: 88%
off-target kinases [2]
  % Inhibition 1: −1%
  % Inhibition 2: −7%
  % Inhibition Avg: −4%
off-target kinases [3]; read-out: % Inhibition 1
  inhibition: 34%
off-target kinases [3]; read-out: % Inhibition 2
  inhibition: 29%
off-target kinases [3]; read-out: % Inhibition Avg
  inhibition: 31%
off-target kinases [4]; read-out: % Inhibition 1
  inhibition: 56%
off-target kinases [4]; read-out: % Inhibition 2
  inhibition: 58%
off-target kinases [4]; read-out: % Inhibition Avg
  inhibition: 57%
off-target kinases [5]; read-out: % Inhibition 1
  inhibition: -5%
off-target kinases [5]; read-out: % Inhibition 2
  inhibition: -2%
off-target kinases [5]; read-out: % Inhibition Avg
  inhibition: -3%
